Results reported in US8008299B2, “Urotensin II receptor antagonists” (Janssen Pharmaceutica, N.V., priority 2007, dated 2011).

Legend:
[1] = biological target: T1, UT receptors in HSMM (Human Skeletal Muscle Myoblasts) (Homo sapiens, UniProt Q9UKP6); assay: Human Radioligand Binding Assay ((^125I)-U-II binding to intact HSMM)
T1 sequence (Q9UKP6 1-389): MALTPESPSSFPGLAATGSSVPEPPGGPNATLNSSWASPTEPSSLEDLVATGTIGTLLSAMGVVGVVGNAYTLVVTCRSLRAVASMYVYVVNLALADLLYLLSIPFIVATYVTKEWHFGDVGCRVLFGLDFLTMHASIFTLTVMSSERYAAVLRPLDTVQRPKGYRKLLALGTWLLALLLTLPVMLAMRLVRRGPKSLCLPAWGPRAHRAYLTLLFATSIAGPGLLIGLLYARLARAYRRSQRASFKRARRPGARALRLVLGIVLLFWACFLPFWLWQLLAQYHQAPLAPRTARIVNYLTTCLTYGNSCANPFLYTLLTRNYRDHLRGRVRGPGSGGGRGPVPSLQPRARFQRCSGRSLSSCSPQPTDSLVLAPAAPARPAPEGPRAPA

[2] = biological target: T2, Human UII (U-II receptor) in 6D9 human rhabdomyosarcoma cells (Homo sapiens, UniProt Q9UKP6); assay: Human UII Calcium Mobilization Assay; assay type: cell-based; conditions: 6D9 human rhabdomyosarcoma cells, FLIPR TETRA, average; read-out: Human UII Ca+ Mobilization Average IC50
T2 construct: 6D9: isolated by dilution subcloning of RMS13 cells, ATCC® Number: CRL-2061; host or cells: 6D9 human rhabdomyosarcoma cells (subclone of RMS13)
T2 sequence (Q9UKP6 1-389): T1 sequence (Q9UKP6 1-389)
Method: 25 μL of dye solution was added to the wells such that the final liquid volume before agonist/antagonist treatment was 50 μL for all assays. The cell plates were incubated at 37° C. for 45 minutes and the fluorescence intensity was measured on a Fluorometric Imaging Plate Reader (FLIPR^TETRA, Molecular Devices, Sunnyvale, Calif.).
Antagonist and agonist U-II were added at room temperature on the FLIPR^TETRA, and the fluorescence intensity before and after addition was measured over a period of 4 minutes. The dye incubation time and temperature as well as instrument setting was adjusted so the fluorescence intensity could be compared between plates on the same day. EC50 and IC50 were analyzed using GraphPad Prism 4 software (GraphPad Software Inc., San Diego, Calif.).
For assays, U-II agonist, U-II antagonist and urantide were diluted with HBSS/HEPES containing 0.01% FBS.
Test compounds were dissolved in DMSO at 10 mM concentration. The serial dilutions were carried out in HBSS/HEPES. The highest final DMSO concentration was at 0.1%.

[3] = biological target: T3, rat GPR14 (U-II receptor) (Rattus norvegicus, UniProt P49684); assay: Rat UII Calcium Mobilization FLIPR Assay; assay type: cell-based; conditions: CHO cells transfected with rat GPR14; antagonist activity after 5 min incubation vs agonist (Ac)-CFWK(2-NaI)C-NH2 at 1 nM
T3 construct: expressed in transfected cells
T3 sequence (P49684 1-386): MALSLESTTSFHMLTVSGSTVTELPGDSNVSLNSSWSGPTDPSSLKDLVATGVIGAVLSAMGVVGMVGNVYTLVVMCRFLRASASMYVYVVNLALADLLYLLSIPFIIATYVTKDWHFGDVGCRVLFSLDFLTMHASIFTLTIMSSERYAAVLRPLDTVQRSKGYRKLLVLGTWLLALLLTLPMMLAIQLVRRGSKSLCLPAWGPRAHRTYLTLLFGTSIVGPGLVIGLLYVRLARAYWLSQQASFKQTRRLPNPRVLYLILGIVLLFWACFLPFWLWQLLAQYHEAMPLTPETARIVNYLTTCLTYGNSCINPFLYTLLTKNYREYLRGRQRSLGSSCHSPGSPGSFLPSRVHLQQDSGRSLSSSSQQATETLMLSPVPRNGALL
Description: To derive these cells, the complete coding sequence of rat U-II (Genbank Accession No. U32673) was amplified by nested PCR from rat heart marathon-Ready cDNA. […] The PCR products were cloned into pcDNA3 (Invitrogen) digested with EcoR I and Xba I. Clones containing rat U-II receptor were verified by complete sequencing of the U-II receptor insert to ensure a lack of PCR-introduced errors. The constructed vector was transfected into CHO cells by using lipofectamine (GIBCO BRL). CHO cells with high expression of rat U-II receptor were selected and established as stable cell lines by using G418. CHO cells were seeded at 25,000 cells per well into 96-well, black-wall, clear-bottom microtiter plates 24 h before assay. Cells in culture media (DMEM/F12 containing 15 mM HEPES, L-glutamine, pyridoxine hydrochloride; 10% fetal bovine serum; 1 mg/mL G418 sulfate; antibiotic-antimycotic; pH 7.4) were loaded with proprietary dye, from the FLIPR Calcium Assay Kit (Molecular Devices), prepared in assay buffer (Hanks Balanced Salts Solution, 20 mM HEPES, 0.1% BSA, 2.5 mM probenecid, pH 7.4), and incubated for 1 h at 37° C. Calcium mobilization determinations were performed at room temperature (23° C.).

For `CCN1CCN(c2cccc3c2CN([C@H](CCCNc2nc(OC)cc(OC)n2)c2ccc(OC)c(OC)c2)C3=O)CC1` [Cpd 10, 2-[(1R)-1-(3,4-dimethoxy-phenyl)-4-(4,6-dimethoxy-pyrimidin-2-ylamino)-butyl]-4-(4-ethyl-piperazin-1-yl)-2,3-dihydro-isoindol-1-one], the Ki [1] was 81 nM, the IC50 [2] was 617 nM and the IC50 [3] was 4 nM.

Compound `CCN1CCN(c2cccc3c2CN([C@H](CCCNc2nccc(Cl)n2)c2ccc(OC)c(OC)c2)C3=O)CC1` [Cpd 11, 2-[(1R)-4-(4-chloro-pyrimidin-2-ylamino)-1-(3,4-dimethoxy-phenyl)-butyl]-4-(4-ethyl-piperazin-1-yl)-2,3-dihydro-isoindol-1-one] has a Ki [1] of 62 nM, an IC50 [2] of 496 nM and an IC50 [3] of 1 nM.

Compound `CCN1CCN(c2cccc3c2CN([C@H](CCCNc2nc(C)cc(C)n2)c2ccc(OC)c(OC)c2)C3=O)CC1` [Cpd 12, 2-[(1R)-1-(3,4-dimethoxy-phenyl)-4-(4,6-dimethyl-pyrimidin-2-ylamino)-butyl]-4-(4-ethyl-piperazin-1-yl)-2,3-dihydro-isoindol-1-one] has a Ki [1] of 54 nM, an IC50 [2] of 844 nM and an IC50 [3] of 12 nM.

`CCN1CCN(c2cccc3c2CN(C(CC2CCN(Cc4ccccc4)CC2)c2ccc(OC)c(OC)c2)C3=O)CC1` (stereo not drawn) [Cpd 13, 2-[2-(1-benzyl-piperidin-4-yl)-1-(3,4-dimethoxy-phenyl)-ethyl]-4-(4-ethyl-piperazin-1-yl)-2,3-dihydro-isoindol-1-one] was tested, and the Ki [1] was > 300 nM, the IC50 [2] was 1980 nM and the IC50 [3] was 167 nM.

Compound `CCN1CCN(c2cccc3c2CN([C@H](CCCn2cnnn2)c2ccc(OC)c(OC)c2)C3=O)CC1` [Cpd 14, 2-[(1R)-1-(3,4-dimethoxy-phenyl)-4-tetrazol-1-yl-butyl]-4-(4-ethyl-piperazin-1-yl)-2,3-dihydro-isoindol-1-one] has a Ki [1] of 129 nM, an IC50 [2] of 1390 nM and an IC50 [3] of 31 nM.

In the case of `CCN1CCN(c2cccc3c2CN([C@H](CCCn2ncnn2)c2ccc(OC)c(OC)c2)C3=O)CC1` [Cpd 15, 2-[(1R)-1-(3,4-dimethoxy-phenyl)-4-tetrazol-2-yl-butyl]-4-(4-ethyl-piperazin-1-yl)-2,3-dihydro-isoindol-1-one], the Ki [1] is reported as 172 nM, the IC50 [2] is reported as 1590 nM and the IC50 [3] is reported as 57 nM.

`CCN1CCN(c2cccc3c2CN(C(c2cccc(NS(=O)(=O)c4cccs4)c2)c2ccc(OC)c(OC)c2)C3=O)CC1` (stereo not drawn) [Cpd 16, thiophene-2-sulfonic acid (3-{(3,4-dimethoxy-phenyl)-[4-(4-ethyl-piperazin-1-yl)-1-oxo-1,3-dihydro-isoindol-2-yl]-methyl}-phenyl)-amide] gave a Ki [1] of 66 nM, an IC50 [2] of 1270 nM and an IC50 [3] of 31 nM.

`CCN1CCN(c2cccc3c2CN(C(CC2CCN(S(=O)(=O)O)CC2)c2ccc(OC)c(OC)c2)C3=O)CC1` (stereo not drawn) [Cpd 17, 4-{2-(3,4-dimethoxy-phenyl)-2-[4-(4-ethyl-piperazin-1-yl)-1-oxo-1,3-dihydro-isoindol-2-yl]-ethyl}-piperidine-1-sulfonic acid] was tested, and the Ki [1] was 74 nM, the IC50 [2] was 662 nM and the IC50 [3] was 337 nM.

`CCN1CCN(c2cccc3c2CN(C(CC2CCN(S(=O)(=O)c4cccs4)CC2)c2ccc(OC)c(OC)c2)C3=O)CC1` (stereo not drawn) [Cpd 18, 2-{1-(3,4-dimethoxy-phenyl)-2-[1-(thiophene-2-sulfonyl)-piperidin-4-yl]-ethyl}-4-(4-ethyl-piperazin-1-yl)-2,3-dihydro-isoindol-1-one] showed a Ki [1] of 19 nM, an IC50 [2] of 659 nM and an IC50 [3] of 9 nM.

In the case of `CCN1CCN(c2cccc3c2CN(C(c2cccc(NCc4ccccc4)c2)c2ccc(OC)c(OC)c2)C3=O)CC1` (stereo not drawn) [Cpd 19, 2-[(3-benzylamino-phenyl)-(3,4-dimethoxy-phenyl)-methyl]-4-(4-ethyl-piperazin-1-yl)-2,3-dihydro-isoindol-1-one], the Ki [1] is reported as > 300 nM, the IC50 [2] is reported as 2380 nM and the IC50 [3] is reported as 138 nM.

`CCc1ccnc(NCCC[C@H](c2ccc(OC)c(OC)c2)N2Cc3c(cccc3N3CCN(CC)CC3)C2=O)n1` [Cpd 20, 2-[(1R)-1-(3,4-dimethoxy-phenyl)-4-(4-ethyl-pyrimidin-2-ylamino)-butyl]-4-(4-ethyl-piperazin-1-yl)-2,3-dihydro-isoindol-1-one] showed a Ki [1] of 48 nM, an IC50 [2] of 491 nM and an IC50 [3] of 34 nM.

Compound `CCN1CCN(c2cccc3c2CN([C@H](CCCNc2nccc(OC)n2)c2ccc(OC)c(OC)c2)C3=O)CC1` [Cpd 21, 2-[(1R)-1-(3,4-dimethoxy-phenyl)-4-(4-methoxy-pyrimidin-2-ylamino)-butyl]-4-(4-ethyl-piperazin-1-yl)-2,3-dihydro-isoindol-1-one] has a Ki [1] of 8 nM, an IC50 [2] of 620 nM and an IC50 [3] of 4 nM.

Work on `CCN1CCN(c2cccc3c2CN([C@H](CCCNc2nccc(C(F)(F)F)n2)c2ccc(OC)c(OC)c2)C3=O)CC1` [Cpd 22, 2-[(1R)-1-(3,4-dimethoxy-phenyl)-4-(4-trifluoromethyl-pyrimidin-2-ylamino)-butyl]-4-(4-ethyl-piperazin-1-yl)-2,3-dihydro-isoindol-1-one] yielded a Ki [1] of 13 nM, an IC50 [2] of 187 nM and an IC50 [3] of 3 nM.

With `CCN1CCN(c2cccc3c2CN([C@H](CCCNc2nccc(C)n2)c2ccc(OC)c(OC)c2)C3=O)CC1` [Cpd 23, 2-[(1R)-1-(3,4-dimethoxy-phenyl)-4-(4-methyl-pyrimidin-2-ylamino)-butyl]-4-(4-ethyl-piperazin-1-yl)-2,3-dihydro-isoindol-1-one] the Ki [1] was 13 nM, the IC50 [2] was 316 nM and the IC50 [3] was 19 nM.

With `CCN1CCN(c2cccc3c2CN([C@H](CCCn2cncn2)c2ccc(OC)c(OC)c2)C3=O)CC1` [Cpd 25, 2-[(1R)-1-(3,4-dimethoxy-phenyl)-4-[1,2,4]triazol-1-yl-butyl]-4-(4-ethyl-piperazin-1-yl)-2,3-dihydro-isoindol-1-one] the Ki [1] was 301 nM, the IC50 [2] was 2110 nM and the IC50 [3] was 145 nM.

`CCN1CCN(c2cccc3c2CN([C@H](CCCSc2nc(C)cc(C)n2)c2ccc(OC)c(OC)c2)C3=O)CC1` [Cpd 27, 2-[(1R)-1-(3,4-dimethoxy-phenyl)-4-(4,6-dimethyl-pyrimidin-2-ylsulfanyl)-butyl]-4-(4-ethyl-piperazin-1-yl)-2,3-dihydro-isoindol-1-one] showed a Ki [1] of 19 nM, an IC50 [2] of 106 nM and an IC50 [3] of 3 nM.

With `COc1ccc([C@@H](CCCOc2ccccc2)N2Cc3c(cccc3N3CCN(C4CC4)CC3)C2=O)cc1OC` [Cpd 28, 4-(4-cyclopropyl-piperazin-1-yl)-2-[(1R)-1-(3,4-dimethoxy-phenyl)-4-phenoxy-butyl]-2,3-dihydro-isoindol-1-one] the Ki [1] was 154 nM, the IC50 [2] was 1210 nM and the IC50 [3] was 25 nM.

`CCN1CCN(c2cccc3c2CN([C@H](CCCn2cnc4ccccc42)c2ccc(OC)c(OC)c2)C3=O)CC1` [Cpd 29, 2-[(1R)-4-benzoimidazol-1-yl-1-(3,4-dimethoxy-phenyl)-butyl]-4-(4-ethyl-piperazin-1-yl)-2,3-dihydro-isoindol-1-one] gave a Ki [1] of 56 nM, an IC50 [2] of 380 nM and an IC50 [3] of 14 nM.
